Format in all cases: cell-based
Assay [1] concerns HCT-116 colorectal cancer cells. Briefly: antitumor activity, sulforhodamine B cell growth assay, HCT-116. The protocol:
(§1) The THIQ compound containing a macrocyclic structure of the present invention was administered to various cancer cell lines, and the antitumor activity (Go value) was observed. Specifically, verification was performed according to the literature (Yamori, T.; Matsunaga, A.; Sato, S.; Yamazaki, K.; Komi, A.; Ishizu, K. et al. Cancer Res. 1999, 59, 4042) by the following procedure.
(§2) Cells were plated at an appropriate density in a 96-well plate in RPMI 1640 together with 5% fetal bovine serum, and adhered overnight. The cells were exposed to a drug for 48 hours. Then, according to the sulforhodamine B assay described by Skehan et al (Skehan P., Storeng R., Scudiero D., Monks A., McMahon J., Vistica D., Warren J. T., Bokesch H., Kenney S., Boyd M. R. J Natl. Cancer Inst, 1990, 82, 1107-1112), the cell growth rate was measured. The absorbance of the control well (C) and the test well (T) was measured at 525 nm. In addition, the time at which the drug was added was set as time 0, and the absorbance for the test well (T0) was measured. Using these measured values, the cell growth inhibitory effect (% growth=PG) was calculated by the following formula at each concentration of the drug.
(§3) (T<T0): PG=100×[(T−T0)/T]
(§4) The PG values determined above for each cell line were plotted against the concentration (logarithm) on a semi-logarithmic graph, and summarized for each visceral cancer. Concentrations at which the dose-response curve of each cell line crossed the horizontal line of PG=50%, 0%, or −50% were calculated. These concentrations were defined as Log GI50, Log TGI, and Log LC50. Actually, using two data points of the drug concentration before and after crossing each horizontal line, the drug concentration (logarithmic value) at the intersection of the straight line connecting the two points and the horizontal line for each PG was calculated.

In assay [2] the test system is NCI-H522 lung cancer cells. Briefly: antitumor activity, sulforhodamine B cell growth assay, NCI-H522. Here is the method:
as §1, §2, §3, §4

Assay [3] has as its system OVCAR-5 cervical cancer cells. Briefly: antitumor activity, sulforhodamine B cell growth assay, OVCAR-5. The protocol:
as §1, §2, §3, §4

Assay [4] concerns MDA-MB-231 breast cancer cells. In words: antitumor activity, sulforhodamine B cell growth assay, MDA-MB-231. The protocol:
as §1, §2, §3, §4

Assay [5] concerns LOX-IMVI melanoma cells. In words: antitumor activity, sulforhodamine B cell growth assay, LOX-IMVI. The protocol:
as §1, §2, §3, §4

In assay [6] the test system is DMS114 lung cancer cells. In words: antitumor activity, sulforhodamine B cell growth assay, DMS114. The protocol: as §1, §2, §3, §4
The subject of assay [7] is MKN45 gastric cancer cells. Briefly: antitumor activity, sulforhodamine B cell growth assay, MKN45. Here is the method: as §1, §2, §3, §4
The test system of assay [8] is SNB-78 central nervous system cancer cells. In words: antitumor activity, sulforhodamine B cell growth assay, SNB-78. Here is the method:
as §1, §2, §3, §4

Assay [9] has as its system MKN74 gastric cancer cells. Briefly: antitumor activity, sulforhodamine B cell growth assay, MKN74. The protocol:
as §1, §2, §3, §4

Assay [10] deals with HT-29 colorectal cancer cells. In words: antitumor activity, sulforhodamine B cell growth assay, HT-29. Here is the method: as §1, §2, §3, §4
The subject of assay [11] is HBC-4 breast cancer cells. In words: antitumor activity, sulforhodamine B cell growth assay, HBC-4. The protocol:
as §1, §2, §3, §4

For assay [12], the system named is SF-295 central nervous system cancer cells. Briefly: antitumor activity, sulforhodamine B cell growth assay, SF-295. The protocol:
as §1, §2, §3, §4

The subject of assay [13] is PC-3 prostate cancer cells. In words: antitumor activity, sulforhodamine B cell growth assay, PC-3. The protocol:
as §1, §2, §3, §4

The subject of assay [14] is OVCAR-4 cancer cells. Briefly: antitumor activity, sulforhodamine B cell growth assay, OVCAR-4. The protocol: as §1, §2, §3, §4
Assay [15] has as its system MKN1 gastric cancer cells. In words: antitumor activity, sulforhodamine B cell growth assay, MKN1. Here is the method:
as §1, §2, §3, §4

Assay [16] deals with RXF-631L kidney cancer cells. Briefly: antitumor activity, sulforhodamine B cell growth assay, RXF-631L. Here is the method:
as §1, §2, §3, §4

Assay [17] relates to SF-268 central nervous system cancer cells. Briefly: antitumor activity, sulforhodamine B cell growth assay, SF-268. The protocol:
as §1, §2, §3, §4

Assay [18] relates to NCI-H23 lung cancer cells. In words: antitumor activity, sulforhodamine B cell growth assay, NCI-H23. The protocol: as §1, §2, §3, §4
The mark [19] stands for this setting: Homo sapiens, HCT-116 colorectal cancer cells, read-out: antitumor activity GI50 value: 50% growth inhibitory concentration.
The mark [20] stands for this setting: Homo sapiens, NCI-H522, NCl-H522 lung cancer cells, read-out: antitumor activity GI50 value: 50% growth inhibitory concentration.
The mark [21] stands for this setting: Homo sapiens, OVCAR-5 cervical cancer cells, read-out: antitumor activity GI50 value: 50% growth inhibitory concentration.
The mark [22] stands for this setting: Homo sapiens, MDA-MB-231 breast cancer cells, read-out: antitumor activity GI50 value: 50% growth inhibitory concentration.
Setting [23] is: Homo sapiens, LOX-IMVI melanoma cells, read-out: antitumor activity GI50 value: 50% growth inhibitory concentration.
The mark [24] stands for this setting: Homo sapiens, DMS-114, DMS114 lung cancer cells, read-out: antitumor activity GI50 value: 50% growth inhibitory concentration.
Where [25] appears, read: Homo sapiens, MKN-45, MKN45 gastric cancer cells, read-out: antitumor activity GI50 value: 50% growth inhibitory concentration.
Where [26] appears, read: Homo sapiens, SNB-78 central nervous system cancer cells, read-out: antitumor activity GI50 value: 50% growth inhibitory concentration.
Where [27] appears, read: Homo sapiens, MKN-74, MKN74 gastric cancer cells, read-out: antitumor activity GI50 value: 50% growth inhibitory concentration.
Setting [28] is: Homo sapiens, HT-29 colorectal cancer cells, read-out: antitumor activity GI50 value: 50% growth inhibitory concentration.
Setting [29] is: HBC4, HBC-4 breast cancer cells, read-out: antitumor activity GI50 value: 50% growth inhibitory concentration.
Where [30] appears, read: Homo sapiens, SF-295 central nervous system cancer cells, read-out: antitumor activity GI50 value: 50% growth inhibitory concentration.
Where [31] appears, read: PC-3 prostate cancer cells, read-out: antitumor activity GI50 value: 50% growth inhibitory concentration.
The mark [32] stands for this setting: Homo sapiens, OVCAR-4 cervical cancer cells, read-out: antitumor activity GI50 value: 50% growth inhibitory concentration.
Setting [33] is: Homo sapiens, MKN-1, MKN1 gastric cancer cells, read-out: antitumor activity GI50 value: 50% growth inhibitory concentration.
Where [34] appears, read: RXF-631L kidney cancer cells, read-out: antitumor activity GI50 value: 50% growth inhibitory concentration.
The mark [35] stands for this setting: Homo sapiens, SF-268 central nervous system cancer cells, read-out: antitumor activity GI50 value: 50% growth inhibitory concentration.
Where [36] appears, read: Homo sapiens, NCI-H23, NCl-H23 lung cancer cells, read-out: antitumor activity GI50 value: 50% growth inhibitory concentration.

For four compounds, GI50 results are on record in US20240197726A1, “NOVEL TETRAHYDROISOQUINOLINE ALKALOID COMPOUND CONTAINING MACROCYCLE” (THE UNIVERSITY OF TOKYO, priority 2021, published 2024).

Like-named read-outs stand apart in the source and are kept apart here.

`C#CCN1C/C=C/COc2c(C)c3c(c4c2C[C@H]2[C@H]5c6c(cc(C)c(OC)c6O)C[C@@H]([C@H](C#N)N2C4CNC(=O)[C@@H]1C)N5C)OCO3` [Compound 44]: the GI50 in assay [1] (setting [19]), in assay [2] (setting [20]), in [3] (setting [21]), in [4] (setting [22]), in assay [5] (setting [23]) and in [6] (setting [24]) was less than 10 nM in each case. In addition, the GI50 in assay [7] (setting [25]), in assay [8] (setting [26]), in assay [9] (setting [27]), in [10] (setting [28]), in assay [11] (setting [29]) and in [12] (setting [30]) was less than 10 nM each time. The GI50 in [13] (setting [31]), in assay [14] (setting [32]), in assay [15] (setting [33]), in [16] (setting [34]), in assay [17] (setting [35]) and in assay [18] (setting [36]) was less than 10 nM throughout.

Consider `C#CCN1C(=O)[C@H]2[C@@H]3C=C(COc4c(C)c5c(c6c4C[C@H]4[C@H]7c8c(cc(C)c(OC)c8O)C[C@@H]([C@H](C#N)N4C6CNC(=O)[C@H](C)NC(=O)OC3)N7C)OCO5)C[C@H]2C1=O` [Compound 47], for which the GI50 in assay [1] (setting [19]) came to 450 nM; in assay [2] (setting [20]), 29 nM; in assay [3] (setting [21]), 2800 nM; in [4] (setting [22]), 180 nM; in assay [5] (setting [23]), 160 nM; in [6] (setting [24]), 31 nM. Also, the GI50 in assay [7] (setting [25]) worked out at 470 nM; in assay [8] (setting [26]), 260 nM; in assay [9] (setting [27]) it was 1500 nM; in assay [10] (setting [28]) it was 490 nM; in assay [11] (setting [29]) it was 200 nM; in assay [12] (setting [30]), 1800 nM. Besides, the GI50 was 1500 nM in assay [13] (setting [31]); 3500 nM in [14] (setting [32]); 290 nM in assay [15] (setting [33]); 2100 nM in [16] (setting [34]); 620 nM in assay [17] (setting [35]); 850 nM in assay [18] (setting [36]).

As for `COC1=C(C)C(=O)C2=C(C1=O)[C@H](CNC(=O)[C@H](C)N)N1C(C2)[C@H]2c3c(cc(C)c(OC)c3O)C[C@@H]([C@@H]1C#N)N2C` (some centres unmarked) [Cyanosafracin B, reference compound], the GI50 stood at 290 nM in [1] (HCT-116, drug exposure 48 hours, read-out: GI50 value: 50% growth inhibitory concentration); 43 nM in assay [2] (NCI-H522, drug exposure 48 hours, read-out: GI50 value: 50% growth inhibitory concentration); 390 nM in assay [3] (OVCAR-5, drug exposure 48 hours, read-out: GI50 value: 50% growth inhibitory concentration); 130 nM in assay [4] (MDA-MB-231, drug exposure 48 hours, read-out: GI50 value: 50% growth inhibitory concentration); 81 nM in [5] (LOX-IMVI, drug exposure 48 hours, listed as drawing 116, read-out: GI50 value: 50% growth inhibitory concentration); 61 nM in assay [5] (LOX-IMVI, drug exposure 48 hours, listed as drawing 120, read-out: GI50 value: 50% growth inhibitory concentration). In addition, the GI50 in assay [6] (DMS114, drug exposure 48 hours, listed as drawing 116, read-out: GI50 value: 50% growth inhibitory concentration) worked out at 35 nM; in [6] (DMS114, drug exposure 48 hours, listed as drawing 148, read-out: GI50 value: 50% growth inhibitory concentration), 38 nM; in [7] (MKN45, drug exposure 48 hours, read-out: GI50 value: 50% growth inhibitory concentration) it was 300 nM; in assay [8] (SNB-78, drug exposure 48 hours, read-out: GI50 value: 50% growth inhibitory concentration) it was 63 nM; in [9] (MKN74, drug exposure 48 hours, read-out: GI50 value: 50% growth inhibitory concentration), 310 nM; in assay [10] (HT-29, drug exposure 48 hours, read-out: GI50 value: 50% growth inhibitory concentration), 190 nM. In addition, the GI50 came out at 59 nM in [11] (HBC-4, drug exposure 48 hours, read-out: GI50 value: 50% growth inhibitory concentration); 500 nM in [12] (SF-295, drug exposure 48 hours, read-out: GI50 value: 50% growth inhibitory concentration); 290 nM in assay [13] (PC-3, drug exposure 48 hours, read-out: GI50 value: 50% growth inhibitory concentration); 290 nM in assay [14] (OVCAR-4, drug exposure 48 hours, read-out: GI50 value: 50% growth inhibitory concentration); 52 nM in [15] (MKN1, drug exposure 48 hours, read-out: GI50 value: 50% growth inhibitory concentration); 400 nM in assay [16] (RXF-631L, drug exposure 48 hours, read-out: GI50 value: 50% growth inhibitory concentration). Further, the GI50 turned out to be 370 nM in assay [17] (SF-268, drug exposure 48 hours, read-out: GI50 value: 50% growth inhibitory concentration) and 290 nM in [18] (NCI-H23, drug exposure 48 hours, read-out: GI50 value: 50% growth inhibitory concentration).

Turning to `CC1=C(C)C(=O)C2=C(CC3(C)[C@H]4c5c(cc(C)c(C)c5C)C[C@@](C)(C(C)N3[C@H]2CNC(=O)C(C)C)N4C)C1=O` (some centres unmarked) [drawing 160], the GI50 in assay [1] (setting [19]) was found to be 290 nM; in [2] (setting [20]), 43 nM; in assay [3] (setting [21]), 390 nM; in assay [4] (setting [22]) it was 130 nM; in assay [5] (setting [23]), 61 nM; in [6] (setting [24]), 35 nM. Besides, the GI50 was 300 nM in assay [7] (setting [25]); 63 nM in [8] (setting [26]); 310 nM in [9] (setting [27]); 190 nM in assay [10] (setting [28]); 59 nM in [11] (setting [29]); 500 nM in assay [12] (setting [30]). Further, the GI50 in assay [13] (setting [31]) worked out at 290 nM; in assay [14] (setting [32]), 290 nM; in [15] (setting [33]) it was 52 nM; in [16] (setting [34]) it was 400 nM; in assay [17] (setting [35]) it was 370 nM; in assay [18] (setting [36]) it was 290 nM.
